Values quoted from earlier work in paper PMC12525602, “Identification of Selective α-Glucosidase Inhibitors via Virtual Screening with Machine Learning” (Molecules, 2025).

tested on: α-glucosidase; conditions: 300-compound dataset of reported inhibitors and ineffective compounds, Table S4; cited from earlier work

Structure (SMILES)	activity (label in modeling dataset)
C[C@@H]1O[C@@H](Oc2cc(O)c3c(=O)c(O[C@@H]4O[C@@H](C)[C@H](O)[C@@H](O)[C@H]4O)c(-c4ccc(O)cc4)oc3c2)[C@H](O)[C@H](O)[C@H]1O [compound 0, C[C@H]1[C@H](O)[C@@H](O)[C@@H](O)[C@H](OC2=CC(O)=C3C(OC(C4=CC=C(O)C=C4)=C(O[C@H]5[C@H](O)[C@H](O)[C@@H](O)[C@H](C)O5)C3=O)=C2)O1]	0
COc1cc(-c2oc3cc(O)cc(O)c3c(=O)c2O[C@@H]2O[C@H](CO)[C@@H](O)[C@H](O)[C@H]2O)ccc1O [compound 1, COC1=C(O)C=CC(C2=C(O[C@H]3[C@H](O)[C@@H](O)[C@H](O)[C@@H](CO)O3)C(C4=C(O)C=C(O)C=C4O2)=O)=C1]	0
COc1cc(-c2oc3cc(O)cc(O)c3c(=O)c2O[C@@H]2O[C@H](CO[C@@H]3O[C@@H](C)[C@H](O)[C@@H](O)[C@H]3O)[C@@H](O)[C@H](O)[C@H]2O)ccc1O [compound 2, C[C@H]1[C@H](O)[C@@H](O)[C@@H](O)[C@H](OC[C@@H]2[C@@H](O)[C@H](O)[C@@H](O)[C@H](OC3=C(C4=CC(OC)=C(O)C=C4)OC5=CC(O)=CC(O)=C5C3=O)O2)O1]	0
COc1ccc(S(=O)(=O)NNC(=O)c2cc3cc(F)ccc3[nH]2)cc1OC [compound 3, FC1=CC=C(NC(C(NNS(=O)(C2=CC(OC)=C(OC)C=C2)=O)=O)=C3)C3=C1]	0
Cc1ccc(Nc2nnc(-c3cc4cc(C#N)ccc4[nH]3)s2)cc1 [compound 4, CC(C=C1)=CC=C1NC(S2)=NN=C2C3=CC4=CC(C#N)=CC=C4N3]	0

same assay, conditions: activity label of the modeling dataset (Table S5), α-glucosidase; 1 = active, 0 = inactive; cited from earlier work

Structure (SMILES)	activity
C[C@@H]1O[C@@H](Oc2cc(O)c3c(=O)c(O[C@@H]4O[C@@H](C)[C@H](O)[C@@H](O)[C@H]4O)c(-c4ccc(O)cc4)oc3c2)[C@H](O)[C@H](O)[C@H]1O [compound 0, C[C@H]1[C@H](O)[C@@H](O)[C@@H](O)[C@H](OC2=CC(O)=C3C(OC(C4=CC=C(O)C=C4)=C(O[C@H]5[C@H](O)[C@H](O)[C@@H](O)[C@H](C)O5)C3=O)=C2)O1]	0
COc1cc(-c2oc3cc(O)cc(O)c3c(=O)c2O[C@@H]2O[C@H](CO)[C@@H](O)[C@H](O)[C@H]2O)ccc1O [compound 1, COC1=C(O)C=CC(C2=C(O[C@H]3[C@H](O)[C@@H](O)[C@H](O)[C@@H](CO)O3)C(C4=C(O)C=C(O)C=C4O2)=O)=C1]	0
COc1cc(-c2oc3cc(O)cc(O)c3c(=O)c2O[C@@H]2O[C@H](CO[C@@H]3O[C@@H](C)[C@H](O)[C@@H](O)[C@H]3O)[C@@H](O)[C@H](O)[C@H]2O)ccc1O [compound 2, C[C@H]1[C@H](O)[C@@H](O)[C@@H](O)[C@H](OC[C@@H]2[C@@H](O)[C@H](O)[C@@H](O)[C@H](OC3=C(C4=CC(OC)=C(O)C=C4)OC5=CC(O)=CC(O)=C5C3=O)O2)O1]	0
COc1ccc(S(=O)(=O)NNC(=O)c2cc3cc(F)ccc3[nH]2)cc1OC [compound 3, FC1=CC=C(NC(C(NNS(=O)(C2=CC(OC)=C(OC)C=C2)=O)=O)=C3)C3=C1]	0
Cc1ccc(Nc2nnc(-c3cc4cc(C#N)ccc4[nH]3)s2)cc1 [compound 4, CC(C=C1)=CC=C1NC(S2)=NN=C2C3=CC4=CC(C#N)=CC=C4N3]	0
O=C(O)c1ccc(-c2nc3ccc(C(=O)c4ccccc4)cc3[nH]2)cc1 [compound 5]	0
Cc1ccc(-c2cc(-c3cccnc3)c(C#N)c(N)c2C#N)cc1 [compound 6]	0
N#Cc1c(-c2cccc(Cl)c2)cc(-c2ccco2)c(C#N)c1N [compound 7]	0
O=C(c1ccccc1)c1ccc2nc(-c3ccc(Br)cc3)[nH]c2c1 [compound 8]	0
O=C(c1ccccc1)c1ccc2nc(-c3ccc(O)cc3O)[nH]c2c1 [compound 9]	0
N#Cc1c(-c2ccc(-c3ccccc3)cc2)cc(-c2ccc([N+](=O)[O-])cc2)c(C#N)c1N [compound 10]	0
N#Cc1ccc2[nH]c(-c3nnc(Nc4ccccc4Br)s3)cc2c1 [compound 11]	0
N#Cc1c(-c2ccc(Cl)cc2)cc(-c2cccc(Cl)c2)c(C#N)c1N [compound 12]	0
CC1CCCN(c2ccc(/C=N/Nc3nc(-c4ccc(Cl)cc4)cs3)cc2)C1 (stereo not drawn) [compound 13]	0
Cc1ccccc1Nc1nnc(-c2cc3cc(C#N)ccc3[nH]2)s1 [compound 14]	0
CC1CCN(c2ccc(/C=N/Nc3nc(-c4ccc(Br)cc4)cs3)cc2)CC1 [compound 15]	0
Clc1cccc(Cn2cc(CSc3nnc(COc4cccc5cccnc45)o3)nn2)c1 [compound 16]	0
COc1ccc(-n2cc(CSc3nnc(COc4cccc5cccnc45)o3)nn2)cc1 [compound 17]	0
N#Cc1c(-c2ccncc2)cc(-c2ccc([N+](=O)[O-])cc2)c(C#N)c1N [compound 18]	0
N#Cc1c(-c2cccnc2)cc(-c2ccco2)c(C#N)c1N [compound 19]	0
Cc1ccc(-c2cc(-c3cccc([N+](=O)[O-])c3)c(C#N)c(N)c2C#N)cc1 [compound 20]	0
N#Cc1c(-c2ccc(Cl)cc2)cc(-c2ccccn2)c(C#N)c1N [compound 21]	0

Structure (SMILES)	activity
CC1CCN(c2ccc(/C=N/Nc3nc(-c4ccc(C#N)cc4)cs3)cc2)CC1 [compound 22]	0
N#Cc1ccc2[nH]c(-c3nnc(Nc4ccc(Cl)cc4)s3)cc2c1 [compound 23]	0
N#Cc1c(-c2ccc(Cl)cc2)cc(-c2ccco2)c(C#N)c1N [compound 24]	0
N#Cc1c(-c2ccncc2)cc(-c2cccnc2)c(C#N)c1N [compound 25]	0
Cc1ccc(-c2cc(-c3ccc([N+](=O)[O-])cc3)c(C#N)c(N)c2C#N)cc1 [compound 26]	0
CCCCCCCCCCCCCCCCCC(N)=O [compound 27]	0
N#Cc1c(-c2ccncc2)cc(-c2ccccn2)c(C#N)c1N [compound 28]	0
Fc1ccc(Cn2cc(CSc3nnc(COc4cccc5cccnc45)o3)nn2)cc1F [compound 29]	0
O=C(c1ccccc1)c1ccc2nc(-c3ccccc3O)[nH]c2c1 [compound 30]	0
O=c1c(O[C@@H]2O[C@H](CO)[C@@H](O)[C@H](O)[C@H]2O)c(-c2ccc(O)c(O)c2)oc2cc(O)cc(O)c12 [compound 31]	0
N#Cc1c(-c2ccc([N+](=O)[O-])cc2)cc(-c2cccc([N+](=O)[O-])c2)c(C#N)c1N [compound 32]	0
Brc1ccc(Cn2cc(CSc3nnc(COc4cccc5cccnc45)o3)nn2)cc1 [compound 33]	0
O=c1c(OC2OC(CO)C(O)C(O)C2O)c(-c2cc(O)c(O)c(O)c2)oc2cc(O)cc(O)c12 (stereo not drawn) [compound 34]	0
Cc1ccc(-c2cc(-c3ccncc3)c(C#N)c(N)c2C#N)cc1 [compound 35]	0
N#Cc1c(-c2ccncc2)cc(-c2cccc(Cl)c2)c(C#N)c1N [compound 36]	0
N#Cc1c(-c2cccnc2)cc(-c2ccsc2)c(C#N)c1N [compound 37]	0
O=c1c(O[C@@H]2O[C@H](CO)[C@H](O)[C@H](O)[C@H]2O)c(-c2ccc(O)c(O)c2)oc2cc(O)cc(O)c12 [compound 38]	0
N[C@@H](Cc1ccccc1)C(=O)O [compound 39]	0
COc1ccc(Nc2nnc(-c3cc4cc(C#N)ccc4[nH]3)s2)cc1 [compound 40]	0
O=c1c(O[C@@H]2O[C@H](CO)[C@@H](O)[C@H](O)[C@H]2O)c(-c2ccc(O)cc2)oc2cc(O)cc(O)c12 [compound 41]	0
N#Cc1c(-c2cccnc2)cc(-c2ccccn2)c(C#N)c1N [compound 42]	0
COc1cccc(Nc2nnc(-c3cc4cc(C#N)ccc4[nH]3)s2)c1 [compound 43]	0

same assay, conditions: activity label of the modeling dataset, Table S5 (1 = active, 0 = inactive); cited from earlier work

Structure (SMILES)	activity
CCCCCCCCCCCCN [compound 44]	0
C[C@@H]1O[C@@H](Oc2c(-c3ccc(O)c(O)c3)oc3cc(O)cc(O)c3c2=O)[C@H](O)[C@H](O)[C@H]1O [compound 45]	0
N#Cc1c(-c2ccc(Cl)cc2)cc(-c2cccc(Br)c2)c(C#N)c1N [compound 46]	0
Fc1cccc(CSc2nnc(COc3cccc4cccnc34)o2)c1 [compound 47]	0
N#Cc1c(-c2ccc([N+](=O)[O-])cc2)cc(-c2cccc(Br)c2)c(C#N)c1N [compound 48]	0
Clc1ccc(-n2cc(CSc3nnc(COc4cccc5cccnc45)o3)nn2)c(Cl)c1 [compound 49]	0
N#Cc1c(-c2cccc(Cl)c2)cc(-c2cccc([N+](=O)[O-])c2)c(C#N)c1N [compound 50]	0
CCCCCCSc1nnc(COc2cccc3cccnc23)o1 [compound 51]	0
